Reference: patent publication US11654196B2, “Dosing regimens for echinocandin class compounds” (priority 2012, dated 2023)
Like-named read-outs stand apart in the source and are kept apart here. *1 amine or outer side, *2 acyl side, *3 side chain or, on linkers, in order; H or OH if unused. Where a SMILES comes first, the peptide text is derived from it. Bridges are numbered along the chain shown (N, C = ends). [ ]: non-standard residue; d: D form. The star is where a group is joined. pTerphenylCO(4''-OnC5H11) = CCCCCOc1ccc(-c2ccc(-c3ccc(C(=O)*)cc3)cc2)cc1; Orn(4R-OH,5R-OH) = O=C([C@H](C[C@@H](O)[C@@H](O)N[*:3])N[*:1])[*:2]; hTyr(3S-OH,4S-OH) = N[C@H](C(=O)O)[C@H](O)[C@@H](O)c1ccc(O)cc1; Pro(3S-OH,4S-Me) = C[C@H]1CN[C@H](C(=O)O)[C@H]1O; Hyp = O=C(O)[C@@H]1C[C@@H](O)CN1

Experiments:
[1] = Mouse, literature values; cited from earlier work
[2] = Stability in phosphate buffered saline (PBS); type: physicochemical
Procedure: Stock solutions of compound 22 and anidulafungin were prepared in DMSO at a concentration of 1 mg/mL. Plasma samples were prepared by mixing plasma with 10% volume of 1 M sodium phosphate, pH 7.4, to minimize pH fluctuation, and stock solution to produce plasma samples containing approximately 10,000 ng/mL compound 22 or anidulafungin. For the stability experiments in PBS buffer, plasma was replaced with phosphate buffered saline, pH 7.4. The DMSO concentration was 1% in the final incubation. Multiple individual aliquots (0.5 mL each) were prepared, capped, and incubated at 37° C. At each stability time point, the reaction was stopped by removing the sample from the incubator and adding 0.5 mL of acetonitrile containing internal standard. Samples were centrifuged for approximately 5 minutes at 10000 rpm to precipitate the proteins. Stability was measured in five different matrices (i.e. rat plasma, dog plasma, monkey plasma, human plasma, and PBS). An aliquot (100 μL) of supernatant of each sample was assayed by HPLC. The percentage of anidulafungin and compound 22 remaining at each time point was calculated by dividing the peak area ratio at each time point by the peak area ratio at time zero.

[3] = Man, literature values; cited from earlier work
[4] = Rat, literature values; cited from earlier work
[5] = Pharmacokinetics in chimpanzee, IV dose; conditions: in vivo
Procedure: (§1) Pharmacokinetic studies were performed in six adult female chimpanzees. Two chimpanzees received 1-mg/kg IV dose of compound 22 formulated in 5% dextrose (60-minute infusion). Two chimpanzees received 10-mg/kg oral dose of compound 22 formulated in 5% citric acid (oral bolus). Two chimpanzees received 1-mg/kg IV dose of anidulafungin formulated as package label (5% dextrose, 60-minute infusion). Plasma samples were collected from all chimps for 10 days to 22 days. PK curves are depicted in FIGS. 16A, 16B, and 18. All pharmacokinetic calculations were performed using WinNonlin version 4.1 (Pharsight Corp) by noncompartmental analysis.

[6] = Rabbit, literature values; cited from earlier work
[7] = Dog, literature values; cited from earlier work
[8] = Circulating half-life in dog; type: in vivo; conditions: assays conducted by applicant
[9] = Storage stability of solutions and lyophilized formulations (HPLC); type: physicochemical; conditions: for Loss in potency: clear vial, ambient light, 4 months
[10] = Circulating half-life in mouse; type: in vivo; conditions: assays conducted by applicant
[11] = Pharmacokinetics in chimpanzee, oral dose; type: in vivo
Procedure: as §1

[12] = Dissolution profile of tableted formulation 17; type: physicochemical
Procedure: A dissolution study of the tablet of formulation 17 was performed using 500 mL of 100 mM Acetate Buffer pH 5.2 as the medium. The method utilized Apparatus 2 with a paddle speed of 50 rpm, a tablet sinker, and the run time was 60 minutes. […] The HPLC method was a gradient method using an Agilent Zorbax Bonus-RP column (250×4.6 mm) (column temperature of 60° C., wavelength of 300 nm, with Mobile Phase A=33 mM sodium pentanesulfonate pH 4.0 and Mobile Phase B=acetonitrile). The samples were injected neat with an injection volume of 15 μL.

## CCCCCOc1ccc(-c2ccc(-c3ccc(C(=O)N[C@H]4C[C@@H](O)[C@@H](O)NC(=O)[C@@H]5[C@@H](O)[C@@H](C)CN5C(=O)[C@H]([C@@H](C)O)NC(=O)[C@H]([C@H](O)[C@@H](O)c5ccc(O)cc5)NC(=O)[C@@H]5C[C@@H](O)CN5C(=O)[C@H]([C@@H](C)O)NC4=O)cc3)cc2)cc1 [Anidulafungin, anidulafungin, reference compound] ({pTerphenylCO(4''-OnC5H11)}-[Orn(4R-OH,5R-OH)]T[Hyp][hTyr(3S-OH,4S-OH)]T[Pro(3S-OH,4S-Me)]; lactam 1-C)
[1]
  Half-life: 14 to 20 h
[2]; PBS pH 7.4, 37° C., 0 h
  % remaining: 100%
[2]; PBS pH 7.4, 37° C., 1 h
  % remaining: 100%
[2]; PBS pH 7.4, 37° C., 2 h
  % remaining: 97.8%
[2]; PBS pH 7.4, 37° C., 4 h
  % remaining: 87.4%
[2]; PBS pH 7.4, 37° C., 8 h
  % remaining: 86.0%
[2]; PBS pH 7.4, 37° C., 21 h
  % remaining: 68.9%
[2]; PBS pH 7.4, 37° C., 44 h
  % remaining: 41.9%
[3]
  Half-life: 24 to 26 h
[4]
  Half-life: 18 h
[5]; female, chimpanzees, 1-mg/kg IV 60-minute infusion, mean of 2 chimps, read-out: Clearance (converted)
  clearance: 0.417 mL/min/kg
[5]; female, chimpanzees, 1-mg/kg IV 60-minute infusion, mean of 2 chimps, read-out: Plasma half-life (IV) (converted)
  Half-life: 30 h
[5]; female, chimpanzees, 1-mg/kg IV 60-minute infusion, mean of 2 chimps, read-out: Volume of distribution
  Vd: 1.1 L/kg
[6]
  Half-life: 4 to 6 h
[7]
  Half-life: 15 h
[8]; beagle, in vivo, read-out: Half-life (converted)
  Half-life: 12 h

## CC(=O)[O-].CCCCCOc1ccc(-c2ccc(-c3ccc(C(=O)NC4CC(O)C(OCC[N+](C)(C)C)NC(=O)C5C(O)C(C)CN5C(=O)C(C(C)O)NC(=O)C(C(O)C(O)c5ccc(O)cc5)NC(=O)C5CC(O)CN5C(=O)C(C(C)O)NC4=O)cc3)cc2)cc1 (stereo not shown) [Compound 22]
[2]; buffer, 0 h, pH 7.4
  % remaining: 100%
[2]; buffer, 1 h, pH 7.4
  % remaining: 105%
[2]; buffer, 2 h, pH 7.4
  % remaining: 103%
[2]; buffer, 4 h, pH 7.4
  % remaining: 107%
[2]; buffer, 8 h, pH 7.4
  % remaining: 101%
[2]; buffer, 21 h, pH 7.4
  % remaining: 96.3%
[2]; buffer, 44 h, pH 7.4
  % remaining: 96.1%
[9]; 5% Dextrose Solution (1.3 and 1.1 mg/mL) and 0.9% Sterile Saline Solution (1.3 mg/mL), room temperature
  Loss in potency: less than 5%
[9]; accelerated aging at 40° C., 5% Dextrose, 20 mM Acetate Buffer pH 4.5, 20 mM Lactate pH 6.0 (3.3 mg/mL)
  Loss in potency: less than 5%
[9]; as a solid or in solution
  Stability upon storage: commercially acceptable stability
[5]; human
  Clearance used to calculate human circulating concentrations: 0.0567 mL/min/kg
  Plasma half life used to calculate human circulating concentrations: 80 h
[5]
  Clearance compared with anidulafungin: lower clearance
  Half-life compared with anidulafungin: longer half-life
[5]; iv
  Plasma half-life (IV): 81 h
  clearance: 0.0567 mL/min/kg
[10]
  Half-life: 44 to 71 h
[11]; chimpanzees, 10-mg/kg oral bolus in 5% citric acid
  Oral bioavailability: 4.5%
[11]; chimpanzees, 10-mg/kg oral bolus in 5% citric acid, mean of 2 chimps
  Plasma half-life (PO): 99 h
[11]; values based upon chimpanzee studies
  Oral bioavailability used to calculate human circulating concentrations: 5%
[8]
  Half-life: 53 h
[12]; tablet of formulation 17, 100 mM acetate buffer pH 5.2, 5 minutes
  % Compound 22 Dissolved: 23%
[12]; tablet of formulation 17, 100 mM acetate buffer pH 5.2, 10 minutes
  % Compound 22 Dissolved: 48%
[12]; tablet of formulation 17, 100 mM acetate buffer pH 5.2, 15 minutes
  % Compound 22 Dissolved: 62%
[12]; tablet of formulation 17, 100 mM acetate buffer pH 5.2, 30 minutes
  % Compound 22 Dissolved: 93%
[12]; tablet of formulation 17, 100 mM acetate buffer pH 5.2, 45 minutes
  % Compound 22 Dissolved: 96%
[12]; tablet of formulation 17, 100 mM acetate buffer pH 5.2, 60 minutes
  % Compound 22 Dissolved: 97%
